Values quoted from earlier work as cited in patent publication US8883204B2, “Tamper resistant co-extruded dosage form containing an active agent and an adverse agent and process of making same” (Purdue Pharma L.P., priority 2003, dated 2014).

Settings: administered orally

Compound	duration of action [h]
O=C1CC[C@@]2(O)[C@H]3Cc4ccc(O)c5c4[C@@]2(CCN3CC2CC2)[C@H]1O5 [naltrexone]	~24
C[C@H]1[C@H]2Cc3ccc(O)cc3[C@]1(C)CCN2CC1CC1 [cyclazocine]	~24
